According to paper PMC8286840, “Identifying SARS-CoV-2 antiviral compounds by screening for small molecule inhibitors of Nsp3 papain-like protease” (Biochemical Journal, 2021):
“Also recorded” adds a separate entry of the source. Structures can show the parent of a compound that is named as a salt. Where two headings read alike, the source gives them in different places. Where no end group is shown, it is not given here.

What was measured:
[1] = molecular target: T1, SARS-CoV-2 PLpro (nsp3 1564–1878) (Severe acute respiratory syndrome coronavirus 2, UniProt P0DTD1); assay: biochemical; format: biochemical; details: for Normalized activity High (3.75 µM) / Normalized activity Low (1.25µM): normalized to control without compound; for IC50: fluorescent-based assay; for Inhibition (%) 1.25 µM / slope value (of slope value/control) 1.25 µM: 1.25 µM compound; for Inhibition (%) 1.25 µM / Inhibition (%) 3.75 µM: 1.75 µM enzyme, 20 µM substrate; for slope value (of slope value/control) 1.25 µM / slope value (of slope value/control) 3.75 µM: number after the slash is the control without compound; for Inhibition (%) 3.75 µM / slope value (of slope value/control) 3.75 µM: 3.75 µM compound
[2] = molecular target: SARS-CoV-2 PLpro (Severe acute respiratory syndrome coronavirus 2, UniProt P0DTD1); format: biochemical; details: 3.75 µM and 10 µM compound, 0.5 µM enzyme, 5 h RT
[3] = molecular target: T1, SARS-CoV-2 PLpro (nsp3 1564–1878); assay: biochemical; set-up: FRET-quenched peptide (Pro3) cleavage by PLpro, 10 min pre-incubation, slope over 20 min, normalised to no-compound control; details: low concentration screen, read-out: % of control remaining
[4] = molecular target: T1, SARS-CoV-2 PLpro (nsp3 1564–1878); assay: biochemical; set-up: FRET-quenched peptide (Pro3) cleavage by PLpro, 10 min pre-incubation, slope over 20 min, normalised to no-compound control; details: high concentration screen, read-out: % of control remaining

For `CC[C@@H]1Cc2cc(O)ccc2C2=C1c1ccc(O)cc1C[C@H]2CC` (relative stereo) [(R,R)-cis-Diethyl tetrahydro-2,8-chrysenediol], the Z score ([1]; screen, Table S1) was -14.155, the “Normalized activity High (3.75 µM)” value ([1]; screen, Table S1) was 0 and the “Normalized activity Low (1.25µM)” value ([1]; screen, Table S1) was 0.8033.

For `CCCn1c(=O)c2[nH]c(-c3ccc(S(=O)(=O)O)cc3)nc2n(CCC)c1=O` [1,3-Dipropyl-8-p-sulfophenylxanthine], the Z score ([1]; screen, Table S1) was -14.155, the “Normalized activity High (3.75 µM)” value ([1]; screen, Table S1) was 0 and the “Normalized activity Low (1.25µM)” value ([1]; screen, Table S1) was 0.885.

For `Cn1c(=O)c2[nH]c(-c3ccc(S(=O)(=O)O)cc3)nc2n(C)c1=O` [8-(p-Sulfophenyl)theophylline], the Z score ([1]; screen, Table S1) was -14.155, the “Normalized activity High (3.75 µM)” value ([1]; screen, Table S1) was 0 and the “Normalized activity Low (1.25µM)” value ([1]; screen, Table S1) was 0.9534.

In the case of `O=C1c2ccccc2-c2nc3nnnn3nc21` [PDK1/Akt/Flt Dual Pathway Inhibitor], the “Inhibition of PLpro cleavage of the substrate (gel-based)” value [2] is reported as “show inhibition; also recorded: strongly inhibited”, the remaining activity at 1.25 µM ([3]; Well no.=2319) is reported as 11.1% and the IC50 [1] is reported as 265 nM. The IC50 ([1]; listed as PDK/Akt/Flt dual pathway inhibitor) was 260 nM, the Z score ([1]; screen hits, Table 1) was −14.53 and the “Inhibition (%) 1.25 µM” value ([1]; screen) was 89%. For the same compound, the “slope value (of slope value/control) 1.25 µM” value ([1]; screen) was 50, the “Inhibition (%) 3.75 µM” value ([1]; screen) was 100% and the “slope value (of slope value/control) 3.75 µM” value ([1]; screen) was 0. The Z score ([1]; screen, Table S1) was -14.531, the “Normalized activity High (3.75 µM)” value ([1]; screen, Table S1) was -0.02621 and the “Normalized activity Low (1.25µM)” value ([1]; screen, Table S1) was 0.111. The remaining activity at 3.75 µM ([4]; Well no.=2319) was -2.62%.

In the case of `O=C(O)c1cccc(O)c1O` [Pyrocatechuic acid], the “Inhibition of PLpro cleavage of the substrate (gel-based)” value [2] is reported as “did not inhibit”, the remaining activity at 1.25 µM ([3]; Well no.=6595) is reported as 103% and the Z score ([1]; screen hits, Table 1) is reported as −6.846. The “Inhibition (%) 1.25 µM” value ([1]; screen) was 0%, the “slope value (of slope value/control) 1.25 µM” value ([1]; screen) was 453 and the “Inhibition (%) 3.75 µM” value ([1]; screen) was 49%. The “slope value (of slope value/control) 3.75 µM” value ([1]; screen) was 226 and the remaining activity at 3.75 µM ([4]; Well no.=6595) was 51%.

`Nc1cc(Cl)c(NC2=NCCN2)c(Cl)c1` [p-Aminoclonidine hydrochloride] showed a remaining activity at 1.25 µM ([3]; Well no.=151) of 102% and a remaining activity at 3.75 µM ([4]; Well no.=151) of 102%.

`O=C1C=CC(=O)C=C1` [p-Benzoquinone] showed a remaining activity at 1.25 µM ([3]; Well no.=166) of 102% and a remaining activity at 3.75 µM ([4]; Well no.=166) of 105%.

Compound `N[C@@H](Cc1ccc(F)cc1)C(=O)O` [p-Fluoro-L-phenylalanine] has a remaining activity at 1.25 µM ([3]; Well no.=707) of 95.3% and a remaining activity at 3.75 µM ([4]; Well no.=707) of 87%.

Work on `O=Cc1ccc(O)cc1` [p-Hydroxybenzaldehyde] yielded a remaining activity at 1.25 µM ([3]; Well no.=6531) of 103% and a remaining activity at 3.75 µM ([4]; Well no.=6531) of 103%.

Compound `O=C(O)C=Cc1ccc(O)cc1` [p-Hydroxycinnamic acid] has a remaining activity at 1.25 µM ([3]; Well no.=7161) of 105% and a remaining activity at 3.75 µM ([4]; Well no.=7161) of 103%.

For `Clc1cc(I)cc(Cl)c1NC1=NCCN1` [p-Iodoclonidine hydrochloride], the remaining activity at 1.25 µM ([3]; Well no.=873) was 110% and the remaining activity at 3.75 µM ([4]; Well no.=873) was 113%.

Work on `COc1ccccc1N1CCN(CCN(C(=O)c2ccc(F)cc2)c2ccccn2)CC1` [p-MPPF dihydrochloride] yielded a remaining activity at 1.25 µM ([3]; Well no.=899) of 100% and a remaining activity at 3.75 µM ([4]; Well no.=899) of 101%.

`COc1ccccc1N1CCN(CCN(C(=O)c2ccc(I)cc2)c2ccccn2)CC1` [p-MPPI hydrochloride] showed a remaining activity at 1.25 µM ([3]; Well no.=1137) of 97.8% and a remaining activity at 3.75 µM ([4]; Well no.=1137) of 102%.

In the case of `CNCC(O)c1ccc(O)cc1` (stereo not drawn) [p-Synephrine], the remaining activity at 1.25 µM ([3]; Well no.=7313) is reported as 98.5% and the remaining activity at 3.75 µM ([4]; Well no.=7313) is reported as 102%.

`COc1cc(C(=O)c2ccc3ncccc3c2)cc(OC)c1OC` [quinolin-6-yl(3,4,5-trimethoxyphenyl)methanone] was tested, and the remaining activity at 1.25 µM ([3]; Well no.=6127) was 99.8% and the remaining activity at 3.75 µM ([4]; Well no.=6127) was 97.9%.

For `O[C@H]1[C@H](O)[C@@H](O)[C@H](O)[C@@H](O)[C@@H]1O` [scyllo -Inositol], the remaining activity at 1.25 µM ([3]; Well no.=5379) was 104% and the remaining activity at 3.75 µM ([4]; Well no.=5379) was 102%.

In the case of `C[N+](C)(C)CCOP(=O)([O-])OC[C@H](O)CO` [sn-Glycero-3-phosphocholine], the remaining activity at 1.25 µM ([3]; Well no.=7303) is reported as 106% and the remaining activity at 3.75 µM ([4]; Well no.=7303) is reported as 106%.

With `COCCCOc1ccnc(C[S+]([O-])c2nc3ccccc3[nH]2)c1C` (stereo not drawn) [sodium 2-((4-(3-methoxypropoxy)-3-methylpyridin-2-yl)methylsulfinyl)benzo[d]imidazol-1-ide] the remaining activity at 1.25 µM ([3]; Well no.=6070) was 95.8% and the remaining activity at 3.75 µM ([4]; Well no.=6070) was 93.7%.

With `COc1ccnc(C[S+]([O-])c2nc3cc(OC(F)F)ccc3[nH]2)c1OC` (stereo not drawn) [sodium 5-(difluoromethoxy)-2-((3,4-dimethoxypyridin-2-yl)methylsulfinyl)benzo[d]imidazol-1-ide hydrate] the remaining activity at 1.25 µM ([3]; Well no.=5829) was 95.3% and the remaining activity at 3.75 µM ([4]; Well no.=5829) was 96.9%.

`CC(C)(C)C(=O)Oc1ccc(S(=O)(=O)Nc2ccccc2C(=O)NCC(=O)O)cc1` [sodium ({2-[({4-[(2,2-dimethylpropanoyl)oxy]phenyl}sulfonyl)amino]benzoyl}amino)acetate hydrate] showed a remaining activity at 1.25 µM ([3]; Well no.=5452) of 95.1% and a remaining activity at 3.75 µM ([4]; Well no.=5452) of 101%.

`CC(C)(C)c1cc(O)ccc1O` [tert-Butylhydroquinone] showed a remaining activity at 1.25 µM ([3]; Well no.=3861) of 98% and a remaining activity at 3.75 µM ([4]; Well no.=3861) of 97.9%.

`N[C@]1(C(=O)O)CC[C@H](C(=O)O)C1` [trans-ACPD] was tested, and the remaining activity at 1.25 µM ([3]; Well no.=7040) was 98.2% and the remaining activity at 3.75 µM ([4]; Well no.=7040) was 96.7%.

For `O=C(O)/C=C(\CC(=O)O)C(=O)O` [trans-Aconitic acid], the remaining activity at 1.25 µM ([3]; Well no.=6827) was 94.2% and the remaining activity at 3.75 µM ([4]; Well no.=6827) was 95.7%.

`O=C(O)/C=C/C=C/C(=O)O` [trans-trans-Muconic acid] was tested, and the remaining activity at 1.25 µM ([3]; Well no.=6589) was 103% and the remaining activity at 3.75 µM ([4]; Well no.=6589) was 106%.

`Nc1ncnc2c1C(=O)N(c1ccc(C3CCC(CC(=O)O)CC3)cc1)CCO2` (stereo not drawn) [{4-[4-(4-amino-5-oxo-7,8-dihydropyrimido[5,4-f][1,4]oxazepin-6(5H)-yl)phenyl]cyclohexyl}acetic acid] gave a remaining activity at 1.25 µM ([3]; Well no.=5830) of 105% and a remaining activity at 3.75 µM ([4]; Well no.=5830) of 103%.

Compound `CCCCC/C=C\C/C=C\C/C=C\CCCCC(=O)O` [γ-Linolenic acid (18:3 n-6)] has a remaining activity at 1.25 µM ([3]; Well no.=4307) of 95% and a remaining activity at 3.75 µM ([4]; Well no.=4307) of 100%.

In the case of Ac-LKKTETQ [TB500], the remaining activity at 1.25 µM ([3]; Well no.=7646) is reported as 92.9% and the remaining activity at 3.75 µM ([4]; Well no.=7646) is reported as 90.2%.

With DRVYVHPF [Angiotensin II 5-valine] the remaining activity at 1.25 µM ([3]; Well no.=7899) was 98.8%, the remaining activity at 1.25 µM ([3]; Well no.=7986) was 90.3% and the remaining activity at 3.75 µM ([4]; Well no.=7899) was 97.5%. The remaining activity at 3.75 µM ([4]; Well no.=7986) was 89.7%.

With KIPYIL [Neuromedin N] the remaining activity at 1.25 µM ([3]; Well no.=8061) was 91.8%, the remaining activity at 1.25 µM ([3]; Well no.=8502) was 105% and the remaining activity at 3.75 µM ([4]; Well no.=8061) was 90.1%. It also gave a remaining activity at 3.75 µM ([4]; Well no.=8502) of 102%.

With RPPGFSPFR [Bradykinin] the remaining activity at 1.25 µM ([3]; Well no.=8439) was 98.7% and the remaining activity at 3.75 µM ([4]; Well no.=8439) was 95.2%.
